Results on 21 compounds are retold here after patent US20200270225A1, “Chiral Diacylhydrazine Ligands for Modulating the Expression of Exogenous Genes via an Ecdysone Receptor Complex” (Intrexon Corporation, priority 2007, published 2020).

pEC50: −log10 of the molar value. Like-named read-outs stand apart in the source and are kept apart here.

Data set [1] concerns the target wild-type Choristoneura fumiferana EcR (D, E and F domains) (Choristoneura fumiferana, UniProt O77240). In kind it is cell-based. Conditions: WT-CtEcR, 3T3 Cells; for RMFI (relative maximum fold induction): relative to GS-E ligand. Here is the method: (§1) Cellular gene switch assays were performed by transiently transfecting the following constructs in mouse embryonic fibroblast cells (NIH3T3). The wild-type D, E and F domains from Choristoneura fumiferana EcR or its V390I/Y410E/E274V mutant were fused to GAL4-DBD and placed under the control of the CMV promoter in the pBIND vector (Promega Corporation, Madison, Wis., USA). The DEF domains of EcRs shown were amplified using primers designed based on 20-25 nt sequences at the 5′ and 3′ ends. Restriction enzyme sites EcoR I/BamH I and Xba I were added to 5′ and 3′ primers respectively. The PCR products were digested with appropriate restriction enzymes and cloned into pBIND vector. The EcR LBDs cloned into pBIND vector were verified by sequencing. A chimeric RXR from Homo sapiens RXRP and Locusta migratoria RXR, fused to VP16-AD and placed under the control of an SV40e promoter, was constructed as previously described (Kumar P & Katakam A in Gene Transfer, Friedmann T and Rossi J, eds, pp. 643-651 (2007), Cold Spring Harbor Laboratory Press, Cold Spring Harbor, N.Y.). The inducible luciferase reporter plasmid pFRLuc (Stratagene Cloning Systems, La Jolla, Calif., USA), contains five copies of the GAL4 response element and a synthetic minimal promoter.
(§2) NIH3T3 cells were maintained at 37′C and 5% CO2 in Dulbecco's modified Eagle's medium (DMEM) supplemented with 10% bovine calf serum, both obtained from Mediatech Inc., Manassas, Va. Cells were planted in a 96-well plate at a density of 2,500 cells/well in 50 μL of growth medium. The following day cells were first treated with 35 μL of serum-free DMEM containing dimethyl sulfoxide (DMSO; control) or a DMSO solution containing ligand. Cells were then transfected with 15 μl of serum-free DMEM containing 0.04 μg of EcR construct, 0.04 ug of RXR construct, and 0.16 μg of luciferase reporter construct per well, using SuperFect™ transfection reagent (Qiagen Inc., Valencia, Calif., USA) according to the manufacturer's instructions. Ligands were tested at 8 doses from 0.01-33 μM and the final DMSO concentration was 0.33% in both control and treatment wells. After a 48 hour post-treatment and transfection incubation, the cells were assayed for luciferase activity using the Bright-Glo™ Luciferase Assay System (Promega Corporation, Madison, Wis., USA) following the manufacturer's instructions. EC50 values were measured minimally in duplicate.
(§3) Luciferase reporter gene expression was measured 48 h after cell treatment using Bright-Glo™ Luciferase Assay System from Promega (E2650). Luminescence was detected at room temperature using a Dynex MLX microtiter plate luminometer.
(§4) Each assay was conducted in two separate wells, and the two values were averaged. Fold inductions were calculated by dividing relative light units (“RLU”) in ligand treated cells with RLU in DMSO treated cells. EC50s were calculated from dose response data using a three-parameter logistic model. Relative Max FI was determined as the maximum fold induction of the tested ligand (an embodiment of the invention) observed at any concentration relative to the maximum fold induction of GS™-E ligand (3,5-dimethyl-benzoic acid N-tert-butyl-N′-(2-ethyl-3-methoxy-benzoyl)-hydrazide) observed at any concentration.

The target in data set [2] is T1, [V390I/Y410E/E274V]-CfEcR (Choristoneura fumiferana, UniProt O77240).
T1 construct: assay construct b835
The class given is cell-based. The settings on record: 3T3 Cells; for RMFI (relative maximum fold induction): relative to GS-E ligand. Here is the method:
as §1, §2, §3, §4

Turning to `CCC[C@@H](N(NC(=O)c1ccc(Cl)nc1)C(=O)c1cc(C)cc(C)c1)C(C)(C)C` [Example 28, (R)-3,5-Dimethyl-benzoic acid N-(1-tert-butyl-butyl)-N′-(6-chloro-pyridine-3-carbonyl)-hydrazide], in data set [1] (R), the pEC50 – broadly, −log10 of the EC50, conventionally taken in molar units – was 6.61 and the “RMFI (relative maximum fold induction)” value was 0.38. Moreover, in data set [2] (R), the pEC50 is approximately 7.70 and the “RMFI (relative maximum fold induction)” value was found to be 0.78.

`CCCC(N(NC(=O)c1ccc(C)cc1)C(=O)c1cc(C)cc(C)c1)C(C)(C)C` (racemic) [rac-11]: the pEC50 in data set [1] (rac, read-out: EC50) was 7.05; in data set [2] (rac, read-out: EC50), 8.20. Besides, the “RMFI (relative maximum fold induction)” value stood at 0.66 in data set [1] (rac) and 0.73 in data set [2] (rac).

Take `CCCC(N(NC(=O)c1cc(OC)c(C)c(OC)c1)C(=O)c1cc(C)cc(C)c1)C(C)(C)C` (racemic) [rac-19]: the pEC50 was less than 5.00 in data set [1] (rac, read-out: EC50) and 5.41 in data set [2] (rac, read-out: EC50). Moreover, in data set [2] (rac), the “RMFI (relative maximum fold induction)” value was 0.15.

On to `CCCC(N(NC(=O)c1ccc2c(c1CC)OCCO2)C(=O)c1cc(C)cc(C)c1)C(C)(C)C` (racemic) [rac-22], for which the pEC50 in data set [1] (rac, read-out: EC50) is 9.30; in data set [2] (rac, read-out: EC50), 10.23. Moreover, the “RMFI (relative maximum fold induction)” value is recorded as 0.88 in data set [1] (rac) and 0.79 in data set [2] (rac).

For `CCC[C@H](N(NC(=O)OC(C)(C)C)C(=O)c1cc(C)cc(C)c1)C(C)(C)C` [Example 48, (S)—N′-(1-tert-Butyl-butyl)-N′-(3,5-dimethyl-benzoyl)-hydrazinecarboxylic Acid tert-butyl Ester], the figures for the pEC50 in data set [1] (S) and in data set [2] (S) were less than 4.48 and 5.18, respectively. Moreover, the “RMFI (relative maximum fold induction)” value in data set [1] (S) was found to be 0.03; in data set [2] (S), 0.20.

Consider `CCC[C@@H](N(NC(=O)c1ccccc1OC)C(=O)c1cc(C)cc(C)c1)C(C)(C)C` [Example 4, (R)-3,5-Dimethyl-benzoic acid N-(1-tert-butyl-butyl)-N′-(2-meihoxy-benzoyl)-hydrazide], for which, in data set [1] (R), the pEC50 was 6.00 and the “RMFI (relative maximum fold induction)” value is given as 0.38. In data set [2] (R), the pEC50 was 7.00 and the “RMFI (relative maximum fold induction)” value turned out to be 0.52.

Turning to `CCCC(N(NC(=O)c1ccccc1OC)C(=O)c1cc(C)cc(C)c1)C(C)(C)C` (racemic) [rac-4], the pEC50 was approximately 5.70 in data set [1] (rac, read-out: EC50) and approximately 6.52 in data set [2] (rac, read-out: EC50). The “RMFI (relative maximum fold induction)” value in data set [1] (rac) amounted to 0.32; in data set [2] (rac) it was 0.72.

Take `CCC[C@H](N(NC(=O)c1ccccc1F)C(=O)c1cc(C)cc(C)c1)C(C)(C)C` [Example 34, (S)-3,5-Dimethyl-benzoic acid N-(1-tert-butyl-butyl)-N′-(2-fluoro-benzoyl)-hydrazide]: in data set [1] (S), the pEC50 is 6.28 and the “RMFI (relative maximum fold induction)” value is on record as 0.41. Further, in data set [2] (S), the pEC50 was 7.07 and the “RMFI (relative maximum fold induction)” value is reported as 0.64.

As for `C=CCC(C1CCCCC1)N(NC(=O)c1cccc(OC)c1C)C(=O)c1cc(C)cc(C)c1` (racemic) [rac-60], the pEC50 in data set [1] (rac, read-out: EC50) is approximately 6.00; in data set [2] (rac, read-out: EC50), approximately 6.70. For the same compound, the results for the “RMFI (relative maximum fold induction)” value in data set [1] (rac) and in data set [2] (rac) were 0.49 and 0.73, respectively.

`CCCC(N(NC(=O)c1cccc(OC)c1CC)C(=O)c1cc(C)cc(C)c1)C(C)(C)C` (racemic) [rac-2]: the pEC50 in data set [1] (rac, read-out: EC50) was approximately 7.00; in data set [2] (rac, read-out: EC50), 8.41. In addition, the “RMFI (relative maximum fold induction)” value in data set [1] (rac) was determined as 0.60; in data set [2] (rac), 0.85.

As to `CCCC(N(NC(=O)c1ccc(CC)cc1)C(=O)c1cc(C)cc(C)c1)C(C)(C)C` (racemic) [rac-12], the pEC50 was approximately 7.70 in data set [1] (rac, read-out: EC50) and approximately 9.22 in data set [2] (rac, read-out: EC50). Moreover, the “RMFI (relative maximum fold induction)” value amounted to 0.79 in data set [1] (rac) and 0.96 in data set [2] (rac).

For `CCCC(N(NC(=O)c1cccs1)C(=O)c1cc(C)cc(C)c1)C(C)(C)C` (racemic) [rac-25], the pEC50 in data set [1] (rac, read-out: EC50) is 5.50; in data set [2] (rac, read-out: EC50), 6.76. Moreover, the “RMFI (relative maximum fold induction)” value was 0.52 in data set [1] (rac) and 0.89 in data set [2] (rac).

For `CCCC(N(NC(=O)c1ccccc1Br)C(=O)c1cc(C)cc(C)c1)C(C)(C)C` (racemic) [rac-7], the pEC50 was 7.07 in data set [1] (rac, read-out: EC50) and approximately 8.52 in data set [2] (rac, read-out: EC50). Further, the results for the “RMFI (relative maximum fold induction)” value in data set [1] (rac) and in data set [2] (rac) were 0.63 and 1.28, respectively.

For the compound `CCCC(N(NC(=O)c1c(Cl)cccc1Cl)C(=O)c1cc(C)cc(C)c1)C(C)(C)C` (racemic) [rac-3], the pEC50 in data set [1] (rac, read-out: EC50) was 7.00; in data set [2] (rac, read-out: EC50), 7.91. Also, the “RMFI (relative maximum fold induction)” value in data set [2] (rac) came out at 0.97.

In the case of `CCCC(N(NC(=O)c1ccc(Cl)nc1)C(=O)c1cc(C)cc(C)c1)C(C)(C)C` (racemic) [rac-28], the pEC50 is 6.33 in data set [1] (rac, read-out: EC50) and 7.33 in data set [2] (rac, read-out: EC50). Moreover, the “RMFI (relative maximum fold induction)” value in data set [1] (rac) is on record as 0.70; in data set [2] (rac), 0.68.

Turning to `CCC[C@@H](C1CCCCC1)N(NC(=O)c1cccc(OC)c1CC)C(=O)c1cc(C)cc(C)c1` [Example 56, (S)-3,5-Dimethyl-benzoic acid N-(1-cyclohexyl-butyl)-N′-(2-ethyl-3-methoxy-benzoyl)-hydrazide], in data set [1] (S), the pEC50 was 6.80 and the “RMFI (relative maximum fold induction)” value was 0.37. In data set [2] (S), the pEC50 is 6.97 and the “RMFI (relative maximum fold induction)” value came out at 0.52.

On to `CCCC(N(NC(=O)c1ccc(OC)c(OC)c1)C(=O)c1cc(C)cc(C)c1)C(C)(C)C` (racemic) [rac-17], for which the pEC50 is 5.38 in data set [1] (rac, read-out: EC50) and 6.14 in data set [2] (rac, read-out: EC50). For the same compound, the “RMFI (relative maximum fold induction)” value in data set [1] (rac) is 0.25; in data set [2] (rac), 0.51.

Regarding `CCC[C@@H](C1CCCCC1)N(NC(=O)c1ccccc1)C(=O)c1cc(C)cc(C)c1` [Example 57, (S)-3,5-Dimethyl-benzoic acid N′-benzoyl-N-(1-cyclohexyl-butyl)-hydrazide], the negative-log EC50 (pEC50) is 5.56 in data set [1] (S) and 6.11 in data set [2] (S). In addition, the “RMFI (relative maximum fold induction)” value in data set [1] (S) is recorded as 0.32; in data set [2] (S) it was 0.50.

Take `CCC[C@H](N(NC(=O)c1ccccc1C)C(=O)c1cc(C)cc(C)c1)C(C)(C)C` [Example 33, (S)-3,5-Dimethyl-benzoic acid N-(1-tert-butyl-butyl)-N′-(2-methyl-benzoyl)-hydrazide]: in data set [1] (S), the pEC50 was approximately 5.48 and the “RMFI (relative maximum fold induction)” value came to 0.20. Also, in data set [2] (S), the pEC50 is approximately 6.40 and the “RMFI (relative maximum fold induction)” value turned out to be 0.48.

With `CCC[C@H](N(NC(=O)c1ccc(CC)cc1)C(=O)c1cc(C)cc(C)c1)C(C)(C)C` [Example 39, (S)-3,5-Dimethyl-benzoic acid N-(1-tert-butyl-butyl)-N′-(4-ethyl-benzoyl)-hydrazide], in data set [1] (S), the pEC50 is 6.38 and the “RMFI (relative maximum fold induction)” value is 0.29. In data set [2] (S), the pEC50 is approximately 7.70 and the “RMFI (relative maximum fold induction)” value is given as 0.70.

For the compound `C=CC[C@H](C1CCCCC1)N(NC(=O)c1cccc(OC)c1C)C(=O)c1cc(C)c(OC)c(C)c1` [Example 61, (R)-4-Methoxy-3,5-dimethyl-benzoic acid N-(1-cyclohexyl-but-3-enyl)-N′-(3-methoxy-2-methyl-benzoyl)-hydrazide], in data set [1] (R), the pEC50 is approximately 5.48 and the “RMFI (relative maximum fold induction)” value is listed as 0.33. Moreover, in data set [2] (R), the negative-log EC50 (pEC50) is 5.99 and the “RMFI (relative maximum fold induction)” value is 0.67.
